This is an account of results in article PMC12040169 (PLOS Biology, 2025).

The series is described as follows: in vitro. The following applies: human, hela cells, % viability.
Regarding `Cc1nc(S(=O)(=O)N2CCOC3(CCCC3)C2)cn1C` [CBK304834], the viability at 28.5 h, 10 µM turned out to be 109%. To `CC1CCC(C(N)=O)CN1c1cc(=O)n2ccccc2n1` (stereo not shown) [CBK304835] belongs 104%; to `CCc1nc2n(n1)CC(NC1CCCc3ccccc31)CC2` (stereo not shown) [CBK304837], 95.6%. In the case of `CCOC(=O)C1CCCN(Cc2c(C)nn(C)c2Cl)C1` (stereo not shown) [CBK304838], the viability at 28.5 h, 10 µM worked out at 92.4%.

Turning to `CC(C)(C)OC(=O)N1CCC(NCCc2ccccn2)C1` (stereo not shown) [CBK304839], the viability at 28.5 h, 10 µM was determined as 94.2%. To `CC(Oc1cccc(F)c1)C(=O)N(C)Cc1cccnc1` (stereo not shown) [CBK304841] belongs 95.5%. In the case of `c1cnn(CC2CCCCN2c2ncnc3ccsc23)c1` (stereo not shown) [CBK304843] it was 88.3%; in that of `N#Cc1ccccc1C(=O)N(CCO)Cc1ccccc1` [CBK304844], 89.8%. `CC(Cn1cccn1)NCC(=O)NC1(C#N)CCCCC1` (stereo not shown) [CBK304845]: the viability at 28.5 h, 10 µM is 102%. Regarding `Cc1cc(C)n(CC2CCCN2CCc2ccccn2)n1` (stereo not shown) [CBK304846], the viability at 28.5 h, 10 µM is 100%. In the case of `O=C1CCC(CNS(=O)(=O)c2ccccc2Cl)N1` (stereo not shown) [CBK304850], the viability at 28.5 h, 10 µM turned out to be 103%. Consider `Cc1nnc(CN(C)C2CCN(CC3CCCC3)C2)n1C` (stereo not shown) [CBK304851], for which the viability at 28.5 h, 10 µM turned out to be 106%. To `Cc1cc(C)n(CC2CCCCN2Cc2ccccn2)n1` (stereo not shown) [CBK304853] belongs 86.7%; to `CCC(O)CN1CCCC(c2nc3cc(C)ccc3[nH]2)C1` (stereo not shown) [CBK304854], 88.8%. As to `Cc1cc(CNCc2c(C(C)C)nn(C)c2N(C)C)no1` [CBK304855], the viability at 28.5 h, 10 µM is 97%. In the case of `Cc1noc(C2(O)CCN(Cc3sccc3Cl)C2)n1` (stereo not shown) [CBK304863] it was 97.5%; in that of `Cc1ccc(C)c(CSC2CCN(C3CCOCC3)C2=O)c1` (stereo not shown) [CBK304865], 103%; in that of `CCc1noc(C)c1C(=O)N1CCN(C2CCCC2O)CC1` (stereo not shown) [CBK304869], 78%. For the molecule `CC1CN(S(=O)(=O)C(C)C)CCC1NCc1ccncc1` (stereo not shown) [CBK304870], the viability at 28.5 h, 10 µM is 89.6%. For the molecule `O=C(Cc1ccn[nH]1)N1CC(O)CC1c1cc(F)ccc1F` (stereo not shown) [CBK304872], the viability at 28.5 h, 10 µM worked out at 92.3%. For `CN(CCc1ccncc1)C(=O)CCc1cc(F)ccc1F` [CBK304876], the viability at 28.5 h, 10 µM was 90.6%. In the case of `O=C(NCCN1CCCCC1)C1CC(=O)N(Cc2ccco2)C1` (stereo not shown) [CBK304877] it was 89.8%; in that of `CCOC(=O)c1ccoc1CN1CCCC1c1ccsc1` (stereo not shown) [CBK304878], 86.7%.

`Cc1c(C(C)NCC(O)COc2ccc(C#N)cc2)cnn1C` (stereo not shown) [CBK304881]: the viability at 28.5 h, 10 µM was determined as 97.5%. In the case of `Cc1nc(S(=O)(=O)CC2CCCO2)n(CC(C)C)c1C` (stereo not shown) [CBK304882] it was 116%. Consider `Cc1ccc(OCC(=O)Nc2ncn(Cc3cccnc3)n2)cc1` [CBK304888], for which the viability at 28.5 h, 10 µM was determined as 85%. In the case of `CCc1nc2ccccc2n1CC(=O)N(CCC#N)Cc1cccnc1` [CBK304892] it was 87.7%. Turning to `O=C1NCCN1C1CCN(c2ncnc3ccccc23)CC1` [CBK304896], the viability at 28.5 h, 10 µM was found to be 83.1%. Take `COc1cc(OC)cc(C(=O)Nc2ncccc2OCCCC#N)c1` [CBK304899]: the viability at 28.5 h, 10 µM came out at 88.3%. Consider `O=C(CN1CCC(NC(=O)c2cccs2)CC1)NCc1ccccc1F` [CBK304901], for which the viability at 28.5 h, 10 µM was determined as 97.2%. On to `Cc1cc(C)n(CC2CN(CC(=O)NCc3cccs3)CCO2)n1` (stereo not shown) [CBK304902], for which the viability at 28.5 h, 10 µM was 109%. Turning to `CCCn1cc(NC(=O)C2(c3ccccc3)CCOCC2)ccc1=O` [CBK304905], the viability at 28.5 h, 10 µM amounted to 90.1%. Consider `Cn1ncc2c(=O)n(Cc3nc(C(C)(C)C)no3)cnc21` [CBK304906], for which the viability at 28.5 h, 10 µM came out at 87.9%. As for `CC(C)Oc1ncc(C(=O)N(CCC#N)Cc2ccco2)cc1Cl` [CBK304908], the viability at 28.5 h, 10 µM was found to be 91.6%. On to `Cc1nnc2ccc(N3CCN(Cc4cscn4)CC3)nn12` [CBK304910], for which the viability at 28.5 h, 10 µM came out at 101%. To `Cn1cnnc1C1CCN(C(=O)CC2OCCc3sccc32)CC1` (stereo not shown) [CBK304912] belongs 90.2%. Consider `CN(C)CCn1c(=O)oc2ccc(NC(=O)C3CCCO3)cc21` (stereo not shown) [CBK304913], for which the viability at 28.5 h, 10 µM was found to be 93.9%. In the case of `CCc1[nH]ncc1C(=O)N1CCN(c2nccc(OC)n2)CC1` [CBK304915], the viability at 28.5 h, 10 µM worked out at 86.4%.

Turning to `CCc1noc(C)c1C(=O)N1CCN(C(C#N)C2CCCCC2)CC1` (stereo not shown) [CBK304916], the viability at 28.5 h, 10 µM is 88.8%. With `CCCN1CCC(NC(=O)Cn2c(C3CC3)nc3ccccc32)CC1` [CBK304917], the viability at 28.5 h, 10 µM is 89.2%. In the case of `CCN(CC)C(=O)Cc1ccc(NC(=O)NCc2cnn(C)c2)cc1` [CBK304918], the viability at 28.5 h, 10 µM was 111%. In the case of `Cn1ccc(CN2CCOC(c3nccs3)C2)cc1=O` (stereo not shown) [CBK304921] it was 88.8%. For the molecule `N#CCCN(Cc1ccco1)C(=O)c1ccc(NC2CC2)nc1` [CBK304922], the viability at 28.5 h, 10 µM stood at 88.2%. Consider `Cc1c(C(=O)N2CCn3c(C)nnc3C2)sc2cccc(F)c12` [CBK304923], for which the viability at 28.5 h, 10 µM worked out at 87.5%. As for `Cn1ncc2c(=O)[nH]c(N3CCN(c4cc(C#N)ccn4)CC3)nc21` [CBK304924], the viability at 28.5 h, 10 µM turned out to be 92.4%.

Take `COC(=O)c1ccc(N2CCN(C(C)c3nnc(C)o3)C(C)C2)cc1` (stereo not shown) [CBK304926]: the viability at 28.5 h, 10 µM is 108%. `Cc1cc(C)n(CC(=O)N2CCOC(c3ccccc3Cl)C2)n1` (stereo not shown) [CBK304927]: the viability at 28.5 h, 10 µM was determined as 91.9%. In the case of `Cc1cc(C)c2c(OCC(=O)N(C)CC(=O)NC(C)C)nn(C)c2n1` [CBK304931], the viability at 28.5 h, 10 µM was found to be 84.1%. `Cn1nc(C(C)(C)C)cc1NC(=O)CN1CCc2cncnc2C1` [CBK304934]: the viability at 28.5 h, 10 µM worked out at 106%. On to `COc1ccc(CC(=O)N(C)Cc2nnc3ccccn23)cc1` [CBK304935], for which the viability at 28.5 h, 10 µM was 87.8%. `Cc1ccc(Cl)c(OC(C)C(=O)N2CCCC(C(N)=O)C2)c1` (stereo not shown) [CBK304936]: the viability at 28.5 h, 10 µM was determined as 99.3%. `CC(C)Cn1ncc2cc(C(=O)Nc3ccnn3C(C)C)cnc21` [CBK304938]: the viability at 28.5 h, 10 µM came to 79%. `CC(C)NC(=O)CN(CCO)Cc1cc(Br)ccc1F` [CBK304944]: the viability at 28.5 h, 10 µM is 90.7%. Take `Cn1c(=O)c2c(ncn2Cc2noc(-c3ccoc3)n2)n(C)c1=O` [CBK304945]: the viability at 28.5 h, 10 µM stood at 86.3%. For the molecule `CN(C(=O)C1CC1)C1CCN(c2ncnc3ccccc23)CC1` [CBK304946], the viability at 28.5 h, 10 µM came out at 80%. `Cc1nc(-c2cccnc2)[nH]c(=O)c1CC(=O)N1CCN(C)CC1C` (stereo not shown) [CBK304950]: the viability at 28.5 h, 10 µM is 100%. On to `O=C(Nc1ncn(CC(=O)N2CCCCCC2)n1)c1cccs1` [CBK304953], for which the viability at 28.5 h, 10 µM is 78.1%. Regarding `Cc1cccc(C(=O)Nc2ncn(CC(=O)N3CCCCCC3)n2)n1` [CBK304954], the viability at 28.5 h, 10 µM amounted to 86.6%. To `Cc1nnc2n1CCN(C(=O)CC1OCCc3sccc31)C2` (stereo not shown) [CBK304956] belongs 94%; to `COc1ccc(CCC(=O)Nc2ncccc2OCCCC#N)cc1` [CBK304957], 105%; to `CCn1c(CN2CCC(c3noc(C)n3)CC2)nc2c(F)cccc21` [CBK304960], 91.1%. Turning to `Cc1nn(C)c(C)c1NC(=O)COc1ccc2c(c1)CCCC2=O` [CBK304963], the viability at 28.5 h, 10 µM amounted to 98.5%. Regarding `Cc1ccc(C)c(CC(=O)N(C)C2CCN(C3CCOCC3)CC2)c1` [CBK304964], the viability at 28.5 h, 10 µM worked out at 87.4%.

Regarding `CCCC(C)N(C)C(=O)CCc1c(C)nc(-c2cccnc2)[nH]c1=O` (stereo not shown) [CBK304965], the viability at 28.5 h, 10 µM was determined as 106%. On to `Cc1cccn2cc(CC(=O)OCC(=O)NC(C)(C)C)nc12` [CBK304966], for which the viability at 28.5 h, 10 µM is 110%. In the case of `COc1ccc(C)cc1C1(CNC(=O)C2CCC(=O)N2)CCOCC1` (stereo not shown) [CBK304967] it was 94.8%; in that of `c1cnn(CC2CCCN2c2ncnc3sccc23)c1` (stereo not shown) [CBK304968], 92.5%.

As to `c1cnn(CC2CCCCN2c2ncnc3sccc23)c1` (stereo not shown) [CBK304969], the viability at 28.5 h, 10 µM was 92.1%. As to `CC(O)CN1CCN(c2nc(-c3ccncc3)nc3c2CCC3)CC1` (stereo not shown) [CBK304971], the viability at 28.5 h, 10 µM was 90.3%. In the case of `NC(=O)N1CCC(C(=O)N2CC3(CCCC3)c3c(F)cccc32)CC1` [CBK304973] it was 108%; in that of `O=C(Nc1ncn(CC(=O)N2CCCCCC2)n1)c1ccsc1` [CBK304974], 99.4%; in that of `CC1CCc2c(sc3ncnc(OCC(=O)N(C)CCC#N)c23)C1` (stereo not shown) [CBK304976], 89.8%. For the molecule `COC(=O)C1CCN(Cc2nc3sc4c(c3c(=O)[nH]2)CCC(C)C4)CC1` (stereo not shown) [CBK304978], the viability at 28.5 h, 10 µM came out at 99.2%. In the case of `CC1CCc2c(sc3ncnc(OCC(=O)N4CCCCC4)c23)C1` (stereo not shown) [CBK304979], the viability at 28.5 h, 10 µM came to 87.5%. Take `CC(C)CNS(=O)(=O)c1ccc(N2CCCC2=O)cc1` [CBK304981]: the viability at 28.5 h, 10 µM is 106%. In the case of `COC(=O)c1cc(C#N)c(=O)n(CC(O)COc2cccc(Br)c2)c1` (stereo not shown) [CBK304984], the viability at 28.5 h, 10 µM came to 80.5%. As for `Cc1nc2nc(N)nn2c(C)c1CCC(=O)NCc1ccccc1` [CBK304986], the viability at 28.5 h, 10 µM turned out to be 95.7%. As to `Cc1ccccc1CNC(=O)CCc1c(C)nc2nc(N)nn2c1C` [CBK304987], the viability at 28.5 h, 10 µM stood at 108%.

Turning to `COCCN(C(=O)CSc1ccc2ccccc2n1)C1CCS(=O)(=O)C1` (stereo not shown) [CBK304988], the viability at 28.5 h, 10 µM was found to be 96.4%.

Turning to `Cc1nc2nc(N)nn2c(C)c1CCC(=O)NCCc1ccccc1` [CBK304989], the viability at 28.5 h, 10 µM was determined as 89.5%. For the molecule `COC(=O)c1cc(C#N)c(=O)n(CC(O)COc2ccccc2)c1` (stereo not shown) [CBK304991], the viability at 28.5 h, 10 µM was determined as 99.3%.

For the molecule `Cc1ccccc1CCNC(=O)CCc1c(C)nc2nc(N)nn2c1C` [CBK304994], the viability at 28.5 h, 10 µM is 93.6%. In the case of `CCN1CCC(NC(=O)CSc2nc3ccccc3n2CC(C)C)CC1` [CBK304995] it was 106%. Regarding `Cc1ccnc2nc(C(=O)OC(C)C(=O)NC3CC3)nn12` (stereo not shown) [CBK304998], the viability at 28.5 h, 10 µM came to 92.5%. In the case of `CC1c2ccsc2CCN1C(=O)COc1ccc(Br)cc1` (stereo not shown) [CBK304999] it was 98%.

The term viability denotes a read-out of living cells in per cent, often relative to untreated cells.
